Assay [1] deals with T1, HIV-1 RT wild type (WT) (Human immunodeficiency virus type 1 group M subtype B, UniProt P04585).
T1 construct: Heterodimeric RT was eluted using a descending gradient; made in house; host or cells: E. coli
The assay can be described thus: Reverse Transcriptase (RT) assay, wild type enzyme. The assay is classed as biochemical. The source says:
(§1) Among the enzymes for which Human Immunodeficiency Virus (HIV-1) encodes is a reverse transcriptase (1), so-named because it transcribes a DNA copy from an RNA template. This activity can be quantitatively measured in a cell-free enzyme assay, which has been previously described (2), and is based upon the observation that reverse transcriptase is able to use a synthetic template poly r(C) primed with oligo d(G) to transcribe a radio-labelled, acid-precipitable DNA strand utilising ^3H-dGTP as a substrate. The assay described below utilises the wild type (WT) enzyme, which is the predominant form of the enzyme observed with patients infected with HIV-1. Utilisation of mutant RT enzymes (for example, Y181C, prepared by site-directed mutagenesis in which the tyrosine residue at codon 181 has been replaced by a cysteine residue, or the mutants K103N, V106A and Y188C) and analogous assay conditions allows compounds to be evaluated for their effectiveness at inhibiting the mutant enzymes.
(§2) The HIV-1 RT expression clone, pKRT2, was obtained from Yale University (3). An overnight culture, grown in 2×YT medium (37° C., 225 rpm) (4), supplemented with 100 μg/mL ampicillin for positive selection was used to inoculate the 2×YT medium. The culture was incubated (37° C., 225 rpm) until it reached an OD600 of 0.6-0.9. At that time, the repressor inhibitor IPTG (isopropyl P-D-thiogalactopyranoside) was added to 0.5 mM, and the mixture was incubated for an additional 2 hours.
(§3) Purification of recombinant reverse transcriptase was performed using a combination of methods previously described (5). This procedure is summarised briefly as follows: E. Coli containing RT-1 wt or RT-1 (Y181 C) were suspended in 50 mM MES, pH 6.0 containing 10% glycerol, lysed in a French press, centrifuged, and the supernates discarded. Lysate pellets were extracted with buffer A (50 mM MES, pH 6.0, 100 mM KCl, 50 mM KPi, 10% glycerol, 0.02% hexyl-β-glucoside), and re-centrifuged; nucleic acid in supernates was precipitated with 0.1% polyethylenimine. […] Bound RT was eluted with a gradient of 0 to 1.0M
(§4) (NH4)2 SO4 in buffer B. Heparin-Sepharose fractions containing RT were concentrated (Amicon YM-30 membrane), combined with equal volumes of 2.0M (NH4)2SO4 in buffer B and injected onto a 21.5×150 mm TSK Phenyl-5PW HIC HPLC column (Phenomenex). Heterodimeric RT was eluted using a descending gradient of 1.0M to 0M (NH4)2SO4 in buffer B, concentrated, and stored at 4° C.
(§5) The 2.4× concentrated stock reaction mixture was aliquoted and stored at −20° C. The mixture is stable and can be thawed for use in each assay. This enzyme assay has been adapted to a 96 well microtiter plate system, and has been previously described (6). Tris buffer (50 mM, pH 7.8), vehicle (solvent diluted to match the compound dilution), or compounds in vehicle were dispensed into 96-well microtiter plates (10 μL/well; 3 wells/compound). The HIV-1 RT enzyme was thawed, diluted in 50 mM Tris pH 7.8 containing 0.05% Chaps to give 1.5 nM enzyme and 25 μL were dispensed per well. Ten μL of 0.5M EDTA were added to the first three wells of the microtiter plate. EDTA chelates the Mg^2+ present and prevents reverse transcription. This group served as background polymerisation, which was subtracted, from all other groups. Twenty-five μl of the 2.4× reaction mixture was added to all wells and the assay was allowed to incubate at room temperature for 30 minutes. The assay was terminated by precipitating the DNA in each well with 60 μL of sodium pyrophosphate (2% w/v) in 10% trichloroacetic acid (TCA) (10% w/v). The microtiter plate was incubated for 15 minutes at 4° C. and the precipitate was harvested onto #30 glass fibre paper (Schleicher & Schuell) using a Tomtech 96-well harvester. The filters were dried, placed in plastic bags with Betaplate scintillation cocktail (Pharmacia/LKB) and counted in the Betaplate counter (Pharmacia/LKB).
(§6) The calculation for percent inhibition is as follows: [formula] […]

Assay [2] addresses T2, HIV-1 RT double mutant K103N/Y181C (Human immunodeficiency virus type 1 group M subtype B, UniProt P04585, K690N/Y768C).
T2 construct: Heterodimeric RT was eluted using a descending gradient; made in house; host or cells: E. coli (inferred; the text describes only wild type and Y181C preparations)
The experiment in a line: Reverse Transcriptase (RT) assay, double mutant enzyme. The assay is classed as biochemical.
From the text: as §1, §2, §3, §4, §5, §6

SMILES strings stand for the structures. pIC50: −log10 of the molar value.

For orientation: pIC50 means −log10 of the IC50, conventionally taken in molar units. With `CCN1c2ncc(CCOc3cccc4c3CCS(=O)(=O)N4C(=O)N3CCN(C)CC3)cc2C(=O)N(C)c2cccnc21` [Compound 620], the negative logarithm of the IC50 (pIC50) in assay [1] and in assay [2] was above 7.00 each time.

Turning to `CCN1c2ncc(CCOc3cccc4c3CCS(=O)(=O)N4Cc3ncc[nH]3)cc2C(=O)N(C)c2cccnc21` [Compound 642], the pIC50 in assay [1] and in assay [2] was above 7.00 throughout.

Consider `CCN1c2ncc(CCOc3cccc4c3CS(=O)(=O)N4Cc3cc[n+]([O-])cc3)cc2C(=O)Nc2c(C)cc(Cl)nc21` [Compound 146], for which the pIC50 in assay [1] and in assay [2] was above 7.00 each time.

With `CN1C(=O)c2cc(CCOc3cccc4c3CS(=O)(=O)N4C)cnc2N(C2CC2)c2ncccc21` [Compound 116], the negative logarithm of the IC50 (pIC50) is above 7.00 in assay [1] and 6.00 to 7.00 in assay [2].

Turning to `CCN1c2ncc(CCOc3cccc4c3CS(=O)(=O)N4C)cc2C(=O)N(C)c2ccc(C)nc21` [Compound 114], the pIC50 in assay [1] and in assay [2] was above 7.00 each time.

With `CCN1c2ncc(CCOc3cccc4c3CS(=O)(=O)N4CC3CC3)cc2C(=O)Nc2c(C)ccnc21` [Compound 121], the negative-log IC50 (pIC50) in assay [1] is above 7.00; in assay [2], 6.00 to 7.00.

Consider `CCN1c2ncc(CCOc3ccc4c(c3)CS(=O)(=O)N4)cc2C(=O)N(C)c2cccnc21` [Compound 402], for which the negative logarithm of the IC50 (pIC50) in assay [1] is above 7.00; in assay [2], below 6.00.

Regarding `CCN1c2ncc(CCOc3cccc4c3CCS(=O)(=O)N4Cc3csc(C)n3)cc2C(=O)N(C)c2cccnc21` [Compound 622], the pIC50 in assay [1] and in assay [2] was above 7.00 each time.

`CCN1c2ncc(CCOc3cccc4c3CCNS4(=O)=O)cc2C(=O)N(C)c2cccnc21` [Compound 712]: the pIC50 in assay [1] and in assay [2] was above 7.00 throughout.

As to `CCN1c2ncc(CCOc3cccc4c3CCS(=O)(=O)N4CC(=O)O)cc2C(=O)N(C)c2cccnc21` [Compound 614], the pIC50 in assay [1] and in assay [2] was above 7.00 each time.

Regarding `CCN1c2ncc(CCOc3ccc4c(c3)C(C)(C)NS4(=O)=O)cc2C(=O)N(C)c2cccnc21` [Compound 306], the negative logarithm of the IC50 (pIC50) in assay [1] and in assay [2] was above 7.00 in each case.

For `CCN1c2ncc(COc3ccc4c(c3)CS(=O)(=O)N4)cc2C(=O)N(C)c2ccc(F)nc21` [Compound 404], the pIC50 in assay [1] was above 7.00; in assay [2], below 6.00.

For the compound `Cc1ccnc2c1NC(=O)c1cc(CCOc3cccc4c3CS(=O)(=O)N4Cc3cc[n+]([O-])cc3)cnc1N2C1CC1` [Compound 144], the pIC50 in assay [1] was above 7.00; in assay [2] it was 6.00 to 7.00.

Consider `CCN1c2ncc(CCOc3cccc4c3CCS(=O)(=O)N4CC(N)=O)cc2C(=O)N(C)c2cccnc21` [Compound 609], for which the pIC50 in assay [1] and in assay [2] was above 7.00 throughout.

In the case of `Cc1ccnc2c1NC(=O)c1cc(CCOc3cccc4c3C(C)(C)NS4(=O)=O)cnc1N2C1CC1` [Compound 226], the pIC50 in assay [1] was above 7.00; in assay [2], below 6.00.

On to `CCN1c2ncc(CCOc3cccc4c3CS(=O)(=O)N4CCOc3ccncc3)cc2C(=O)N(C)c2cccnc21` [Compound 142], for which the pIC50 in assay [1] and in assay [2] was above 7.00 each time.

`CCN1c2ncc(CCOc3cccc4c3CCS(=O)(=O)N4C(=O)N3CCCC3)cc2C(=O)N(C)c2cccnc21` [Compound 619]: the pIC50 in assay [1] and in assay [2] was above 7.00 throughout.

For the compound `CCN1c2ncc(CCOc3cccc4c3CS(=O)(=O)N4CC(=O)N(C)O)cc2C(=O)N(C)c2cccnc21` [Compound 134], the pIC50 in assay [1] and in assay [2] was above 7.00 in each case.

As for `CCN1c2ncc(CCOc3cccc4c3CS(=O)(=O)N4Cc3cc[n+]([O-])cc3)cc2C(=O)Nc2c(C)cc(F)nc21` [Compound 145], the pIC50 in assay [1] and in assay [2] was above 7.00 in each case.

On to `CCN1c2ncc(CCOc3cccc4c3CCS(=O)(=O)N4CC(=O)N3CCCC3)cc2C(=O)N(C)c2cccnc21` [Compound 623], for which the pIC50 in assay [1] and in assay [2] was above 7.00 throughout.

With `CCN1c2ncc(CCOc3cccc4c3CS(=O)(=O)N4)cc2C(=O)Nc2c(C)cc(C)nc21` [Compound 109], the values for the negative-log IC50 (pIC50) in assay [1] and in assay [2] were above 7.00 and 6.00 to 7.00, respectively.

Turning to `CCN1c2ncc(CCOc3cccc4c3CCS(=O)(=O)N4CCCC(N)=O)cc2C(=O)N(C)c2cccnc21` [Compound 635], the pIC50 in assay [1] and in assay [2] was above 7.00 each time.

As to `CCN(CC)CCN1c2cccc(OCCc3cnc4c(c3)C(=O)N(C)c3cccnc3N4CC)c2CCS1(=O)=O` [Compound 613], the pIC50 in assay [1] and in assay [2] was above 7.00 throughout.

As for `CCN1C(=O)c2cc(CCOc3cccc4c3C=CS(=O)(=O)N4C)cnc2N(CC)c2ncccc21` [Compound 806], the pIC50 in assay [1] and in assay [2] was above 7.00 throughout.

For the compound `CCOC(=O)N1c2cccc(OCCc3cnc4c(c3)C(=O)N(C)c3cccnc3N4CC)c2CS1(=O)=O` [Compound 122], the negative logarithm of the IC50 (pIC50) in assay [1] and in assay [2] was above 7.00 throughout.

Turning to `CCN1c2ncccc2NC(=O)c2cc(CCOc3cccc4c3C=CS(=O)(=O)N4C)cnc21` [Compound 805], the figures for the negative logarithm of the IC50 (pIC50) in assay [1] and in assay [2] were above 7.00 and 6.00 to 7.00, respectively.

Consider `CCN1c2ncc(CCOc3ccc4c(c3)CN(C)S4(=O)=O)cc2C(=O)N(C)c2cccnc21` [Compound 303], for which the figures for the pIC50 in assay [1] and in assay [2] were above 7.00 and 6.00 to 7.00, respectively.

Turning to `CCN1c2ncc(CCOc3ccc4c(c3)C(C)(C)N(C)S4(=O)=O)cc2C(=O)N(C)c2cccnc21` [Compound 307], the negative-log IC50 (pIC50) in assay [1] was above 7.00; in assay [2], 6.00 to 7.00.

Consider `CCN1c2ncc(CCOc3cccc4c3CCS(=O)(=O)N4C(=O)N(C)OC)cc2C(=O)N(C)c2cccnc21` [Compound 611], for which the negative-log IC50 (pIC50) in assay [1] and in assay [2] was above 7.00 throughout.

For the compound `Cc1cc(F)nc2c1N(C)C(=O)c1cc(CCOc3cccc4c3CS(=O)(=O)N4C)cnc1N2C1CC1` [Compound 119], the pIC50 is above 7.00 in assay [1] and 6.00 to 7.00 in assay [2].

Consider `CCN1c2ncc(CCOc3ccc4c(c3)C(C)(C)S(=O)(=O)N4)cc2C(=O)Nc2c(C)cc(F)nc21` [Compound 409], for which the values for the pIC50 in assay [1] and in assay [2] were above 7.00 and 6.00 to 7.00, respectively.

Take `CCN1c2ncc(CCOc3cccc4c3C(C)(C)NS4(=O)=O)cc2C(=O)N(C)c2cccnc21` [Compound 224]: the pIC50 is above 7.00 in assay [1] and 6.00 to 7.00 in assay [2].

Regarding `CCN1c2ncc(CCOc3cccc4c3C=CS(=O)(=O)N4CC)cc2C(=O)N(C)c2cccnc21` [Compound 807], the negative logarithm of the IC50 (pIC50) in assay [1] and in assay [2] was above 7.00 in each case.

As to `CCN1c2ncc(CCOc3cccc4c3CS(=O)(=O)N4CC)cc2C(=O)N(C)c2ccc(C)nc21` [Compound 115], the negative-log IC50 (pIC50) in assay [1] and in assay [2] was above 7.00 throughout.

Turning to `CCN1c2ncc(CCOc3cccc4c3CS(=O)(=O)N4C)cc2C(=O)Nc2c(C)cc(F)nc21` [Compound 112], the pIC50 in assay [1] and in assay [2] was above 7.00 each time.

For the origin of these results see patent US6716836B2, “Non-nucleoside reverse transcriptase inhibitors” (Boehringer Ingelheim (Canada) Ltd., priority 2001, dated 2004).
